Usually EC50 stands for the concentration at which the effect is half-maximal. As a reminder, the CC50 is the concentration that lowers cell viability or growth by half.

This note sets out measurements from patent US11639350B2, “Heteroaryldihydropyrimidine derivatives and methods of treating hepatitis B infections” (Janssen Pharmaceutica NV, priority 2018, dated 2023).

Like-named read-outs stand apart in the source and are kept apart here.

One series concerns HBV. The series can be described thus: HBV inhibitory activity: HBV DNA in the culture medium of HepG2.2.15 cells by q-PCR. The conditions noted are these: HepG2.2.15 cells, 6 days of compound treatment, HBV DNA in culture medium by q-PCR, highest concentration 10 μM, read-out: EC50. Type of series: cell-based. The gist of the method:
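Supernatant HBV DNA quantified by q-PCR after a 6-day compound exposure, with one mid-course medium change, of HepG2.2.15 cells (stably integrated HBV; 40,000 per well, 2% FBS). Eight-point 3-fold series topped at 10 μM for antiviral EC50; separate plates of 5,000 cells per well with 100 μM top give CC50.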

Another series concerns HepG2.2.15 cells. The series can be described thus: Cytotoxicity determination in HepG2.2.15 cells (CCK-8). The conditions noted are these: 6 days of compound treatment, CCK-8, highest concentration 100 μM. The series is classed as cell-based. Summed up: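 CC50 is from CCK-8 absorbance (450 nm, 630 nm reference) after 2.5 h with reagent. Before that, compounds were applied for six days, top concentration 100 μM, eight threefold dilutions, one mid-course medium change, to stably HBV-integrated HepG2.2.15 cells plated at 5,000/well in 2% FBS.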

Where [1] appears, read: Hepatitis B virus, HepG2.2.15, 144 h.

Turning to `COC(=O)C1=C(C2CCC(NC(C)=O)C2)NC(c2nccs2)=NC1c1cccc(F)c1Cl` (single isomer, unassigned) [Compound 62D, Methyl 6-(3-acetamidocyclopentyl)-4-(2-chloro-3-fluorophenyl)-2-(thiazol-2-yl)-1,4-dihydropyrimidine-5-carboxylate], the EC50 in the series on HBV is 0.892 µM. This molecule also yielded a CC50 in the series with HepG2.2.15 cells of 75.1 µM.
The like results for `COC(=O)C1=C(C2CCC(NC(C)=O)C2)NC(c2nccs2)=NC1c1cccc(F)c1Cl` (single isomer, unassigned) [Compound 62G, Methyl 6-(3-acetamidocyclopentyl)-4-(2-chloro-3-fluorophenyl)-2-(thiazol-2-yl)-1,4-dihydropyrimidine-5-carboxylate] were, in that order, 0.119 µM and 37.1 µM.
On to `COC(=O)C1=C(C2CCN(S(C)(=O)=O)C2)NC(c2nccs2)=NC1c1ccc(F)cc1Cl` (single isomer, unassigned) [Compound 65A, 4-(2-Chloro-4-fluoro-phenyl)-6-(1-methanesulfonyl-pyrrolidin-3-yl)-2-thiazol-2-yl-1,4-dihydro-pyrimidine-5-carboxylic Acid Methyl Ester], for which the EC50 in the series on HBV (setting [1]) was 0.425 µM. Besides, in the series with HepG2.2.15 cells, the CC50 came out at 69.1 µM.
Consider `COC(=O)C1=C(C2CCN(S(C)(=O)=O)C2)NC(c2nccs2)=NC1c1ccc(F)cc1Cl` (single isomer, unassigned) [Compound 65C, 4-(2-Chloro-4-fluoro-phenyl)-6-(1-methanesulfonyl-pyrrolidin-3-yl)-2-thiazol-2-yl-1,4-dihydro-pyrimidine-5-carboxylic Acid Methyl Ester], for which the EC50 in the series with HBV was 0.378 µM. The same molecule showed a CC50 with HepG2.2.15 cells of 19.5 µM.
In the case of `COC(=O)C1=C(C2CCC(C(=O)O)C2)NC(c2nccs2)=NC1c1ccc(F)cc1Cl` (single isomer, unassigned) [Compound 72F, 3-(6-(2-Chloro-4-fluorophenyl)-5-(methoxycarbonyl)-2-(thiazol-2-yl)-3,6-dihydropyrimidin-4-yl)cyclopentanecarboxylic Acid], the EC50 in the series with HBV worked out at 0.058 µM. The same molecule displayed a CC50 in the series on HepG2.2.15 cells of 30 µM.
The matching figures for `COC(=O)C1=C(C2CCOC2)NC(c2nccs2)=NC1c1cccc(F)c1Cl` (single isomer, unassigned) [Compound 74A, Methyl 4-(2-chloro-3-fluorophenyl)-6-(tetrahydrofuran-3-yl)-2-(thiazol-2-yl)-1,4-dihydropyrimidine-5-carboxylate]: 0.088 µM and 33 µM.
For `COC(=O)C1=C(C2CCOC2)NC(c2nccs2)=NC1c1cccc(F)c1Cl` (single isomer, unassigned) [Compound 74C, Methyl 4-(2-chloro-3-fluorophenyl)-6-(tetrahydrofuran-3-yl)-2-(thiazol-2-yl)-1,4-dihydropyrimidine-5-carboxylate], in the series on HBV, the concentration for a half-maximal effect (EC50) was determined as 0.249 µM. In the series with HepG2.2.15 cells, it took 86.5 µM to reach half-maximal cytotoxicity (CC50).
The like results for `COC(=O)C1=C(C2CCOC2)NC(c2nccs2)=NC1c1cccc(F)c1Cl` (single isomer, unassigned) [Compound 74D, Methyl 4-(2-chloro-3-fluorophenyl)-6-(tetrahydrofuran-3-yl)-2-(thiazol-2-yl)-1,4-dihydropyrimidine-5-carboxylate] were, in that order, 0.303 µM and 84.5 µM.
The matching figures for `COC(=O)C1=C(C2CCC(=O)N2)NC(c2nccs2)=NC1c1cccc(F)c1Cl` (single isomer, unassigned) [Compound 75A, Methyl 4-(2-chloro-3-fluorophenyl)-6-(5-oxopyrrolidin-2-yl)-2-(thiazol-2-yl)-1,4-dihydropyrimidine-5-carboxylate]: 0.213 µM and 32.3 µM.
The like results for `COC(=O)C1=C(C2CCC(=O)N2)NC(c2nccs2)=NC1c1cccc(F)c1Cl` (single isomer, unassigned) [Compound 75D, Methyl 4-(2-chloro-3-fluorophenyl)-6-(5-oxopyrrolidin-2-yl)-2-(thiazol-2-yl)-1,4-dihydropyrimidine-5-carboxylate] were, in that order, 0.045 µM and 10.2 µM.
With `CCOC(=O)C1=C([C@@H]2C[C@H]2CC(=O)O)NC(c2nccs2)=NC1c1ccc(F)cc1Cl` (single isomer, unassigned) [Compound 93, 2-(trans-2-(6-(2-Chloro-4-fluorophenyl)-5-(ethoxycarbonyl)-2-(thiazol-2-yl)-3,6-dihydropyrimidin-4-yl)cyclopropyl)acetic Acid], the EC50 with HBV came to 0.507 µM. For the same molecule, the CC50 in the series with HepG2.2.15 cells was 92.5 µM.
For `COC(=O)C1=C(C2CCCC(C(=O)O)CC2)NC(c2nccs2)=NC1c1ccc(F)cc1Cl` (single isomer, unassigned) [Compound 95C, 4-(6-(2-Chloro-4-fluorophenyl)-5-(methoxycarbonyl)-2-(thiazol-2-yl)-3,6-dihydropyrimidin-4-yl)cycloheptanecarboxylic Acid], the concentration giving a half-maximal response (EC50) with HBV was determined as 0.117 µM. Also, half-maximal cytotoxicity with HepG2.2.15 cells (CC50) was put at 33.1 µM.
In the case of `COC(=O)C1=C(C2CCCC(C(=O)O)CC2)NC(c2nccs2)=NC1c1ccc(F)cc1Cl` (single isomer, unassigned) [Compound 95E, 4-(6-(2-Chloro-4-fluorophenyl)-5-(methoxycarbonyl)-2-(thiazol-2-yl)-3,6-dihydropyrimidin-4-yl)cycloheptanecarboxylic Acid], the EC50 in the series with HBV is 0.141 µM. Besides, in the series with HepG2.2.15 cells, the CC50 worked out at 75 µM.
Consider `COC(=O)C1=C(C2CCN(S(C)(=O)=O)CC2)NC(c2nccs2)=NC1c1ccc(F)cc1Br` (single isomer, unassigned) [Compound 120B, Methyl 4-(2-bromo-4-fluorophenyl)-6-(1-(methylsulfonyl)-piperidin-4-yl)-2-(thiazol-2-yl)-1,4-dihydropyrimidine-5-carboxylate], for which the concentration giving a half-maximal response (EC50) in the series on HBV stood at 0.154 µM. The CC50 in the series on HepG2.2.15 cells came to 16.3 µM.
As for `COC(=O)C1=C([C@H]2CCC[C@@H](CO)C2)NC(c2nccs2)=NC1c1ccc(F)cc1Cl` (single isomer, unassigned) [Compound 173C, Methyl 4-(2-chloro-4-fluorophenyl)-6-((cis)-3-(hydroxymethyl)cyclohexyl)-2-(thiazol-2-yl)-1,4-dihydropyrimidine-5-carboxylate], the EC50 with HBV was 0.107 µM. Also, the CC50 in the series with HepG2.2.15 cells was found to be 9.9 µM.
Turning to `COC(=O)C1=C(C2C[C@@H]3CN(S(C)(=O)=O)C[C@@H]3C2)NC(c2nccs2)=NC1c1ccc(F)cc1Cl` (single isomer, unassigned) [Compound 176D, Methyl 4-(2-chloro-4-fluorophenyl)-6-((cis)-2-(methylsulfonyl)-octahydrocyclopenta[c]pyrrol-5-yl)-2-(thiazol-2-yl)-1,4-dihydropyrimidine-5-carboxylate], in the series on HBV (setting [1]), the EC50 was 0.7 µM. In the series on HepG2.2.15 cells, this molecule yielded a CC50 of 11 µM.
As for `COC(=O)C1=C(C2CCN(S(=O)(=O)C3CCC(C)(C(=O)O)CC3)CC2)NC(c2nccs2)=NC1c1ccc(F)c(F)c1Cl` (single isomer, unassigned) [Compound 210A, (trans)-4-((4-(6-(2-chloro-3,4-difluorophenyl)-5-(methoxycarbonyl)-2-(thiazol-2-yl)-3,6-dihydropyrimidin-4-yl)piperidin-1-yl)sulfonyl)-1-methylcyclohexanecarboxylic Acid], the EC50 in the series with HBV was 0.024 µM. In the series with HepG2.2.15 cells, this molecule gave a CC50 of 6 µM.
The matching figures for `COC(=O)C1=C(C2CCN(S(=O)(=O)C3CCC(C)(C(=O)O)CC3)CC2)NC(c2nccs2)=NC1c1ccc(F)c(F)c1Cl` (single isomer, unassigned) [Compound 210B, (cis)-4-((4-(6-(2-chloro-3,4-difluorophenyl)-5-(methoxycarbonyl)-2-(thiazol-2-yl)-3,6-dihydropyrimidin-4-yl)piperidin-1-yl)sulfonyl)-1-methylcyclohexanecarboxylic Acid]: 0.044 µM and 9.7 µM.
Turning to `COC(=O)C1=C(C2CCN(S(=O)(=O)CC(=O)O)C2)NC(c2nccs2)=NC1c1ccc(F)cc1Cl` (single isomer, unassigned) [Compound 214C, 2-((−3-(−6-(2-Chloro-4-fluorophenyl)-5-(methoxycarbonyl)-2-(thiazol-2-yl)-3,6-dihydropyrimidin-4-yl)pyrrolidin-1-yl)sulfonyl)acetic Acid], in the series on HBV, the EC50 was found to be 0.784 µM. Also, in the series with HepG2.2.15 cells, the CC50 was above 100 µM.
The matching figures for `COC(=O)C1=C(C2COC(CO)C2)NC(c2nccs2)=NC1c1cccc(F)c1Cl` (single isomer, unassigned) [Compound 219A, Methyl 4-(2-chloro-3-fluorophenyl)-6-(5-(hydroxymethyl)-tetrahydrofuran-3-yl)-2-(thiazol-2-yl)-1,4-dihydropyrimidine-5-carboxylate]: 0.192 µM and 35.3 µM.
Turning to `COC(=O)C1=C(C2COC(CO)C2)NC(c2nccs2)=NC1c1cccc(F)c1Cl` (single isomer, unassigned) [Compound 219C, Methyl 4-(2-chloro-3-fluorophenyl)-6-(5-(hydroxymethyl)-tetrahydrofuran-3-yl)-2-(thiazol-2-yl)-1,4-dihydropyrimidine-5-carboxylate], the EC50 with HBV stood at 0.176 µM. For the same molecule, in the series with HepG2.2.15 cells, the CC50 was determined as 10.3 µM.
The matching figures for `COC(=O)C1=C(C2COC(CO)C2)NC(c2nccs2)=NC1c1cccc(F)c1Cl` (single isomer, unassigned) [Compound 219E, Methyl 4-(2-chloro-3-fluorophenyl)-6-(5-(hydroxymethyl)-tetrahydrofuran-3-yl)-2-(thiazol-2-yl)-1,4-dihydropyrimidine-5-carboxylate]: 0.134 µM and 51.4 µM.
